Data reported in ChEMBL document CHEMBL4507296 (2021).

Tests used:
[1] = target: Calcium/calmodulin-dependent protein kinase type 1B (Homo sapiens) (UniProt Q6P2M8); conditions: Compound concentration 1000.0 nM
[2] = target: Casein kinase I isoform alpha-like (Homo sapiens) (UniProt Q8N752); conditions: Compound concentration 1000.0 nM
[3] = target: Tyrosine-protein kinase SYK (Homo sapiens) (UniProt P43405); conditions: Compound concentration 1000.0 nM
[4] = target: T1, Alpha-2B adrenergic receptor (Homo sapiens) (UniProt P18089); test: Adrenergic a2b (human) CEREP ligand profiling; conditions: Compound concentration 10.0 uM
T1 sequence (whole entry): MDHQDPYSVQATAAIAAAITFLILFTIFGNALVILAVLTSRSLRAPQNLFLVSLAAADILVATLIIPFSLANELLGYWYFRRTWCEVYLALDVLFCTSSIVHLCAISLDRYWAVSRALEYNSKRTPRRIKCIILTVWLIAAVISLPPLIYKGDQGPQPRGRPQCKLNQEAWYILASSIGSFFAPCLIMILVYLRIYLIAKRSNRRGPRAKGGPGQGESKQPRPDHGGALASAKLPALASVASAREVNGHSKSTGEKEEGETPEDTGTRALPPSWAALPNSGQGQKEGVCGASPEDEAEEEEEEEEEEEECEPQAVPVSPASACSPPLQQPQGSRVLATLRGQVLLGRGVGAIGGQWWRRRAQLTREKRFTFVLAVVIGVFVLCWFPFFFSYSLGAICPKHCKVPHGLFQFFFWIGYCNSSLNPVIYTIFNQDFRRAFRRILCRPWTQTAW

[5] = target: Serine/threonine-protein kinase SIK2 (Homo sapiens) (UniProt Q9H0K1); conditions: Compound concentration 1000.0 nM
[6] = target: Serine/threonine-protein kinase MARK1 (Homo sapiens) (UniProt Q9P0L2); conditions: Compound concentration 1000.0 nM
[7] = target: Cyclin-G-associated kinase (Homo sapiens) (UniProt O14976); conditions: Compound concentration 1000.0 nM
[8] = target: 5-hydroxytryptamine receptor 2C (Homo sapiens) (UniProt P28335); conditions: Compound concentration 10.0 uM
[9] = target: Serine/threonine-protein kinase 32B (Homo sapiens) (UniProt Q9NY57); conditions: Compound concentration 1000.0 nM
[10] = target: Tyrosine-protein kinase TXK (Homo sapiens) (UniProt P42681); conditions: Compound concentration 1000.0 nM
[11] = target: Phosphorylase b kinase regulatory subunit alpha, liver isoform (Homo sapiens) (UniProt P46019); conditions: Compound concentration 1000.0 nM
[12] = target: Insulin-like growth factor 1 receptor (Homo sapiens) (UniProt P08069); conditions: Compound concentration 1000.0 nM
[13] = target: Tyrosine-protein kinase Lyn (Homo sapiens) (UniProt P07948); conditions: Compound concentration 1000.0 nM
[14] = target: TGF-beta receptor type-1 (Homo sapiens) (UniProt P36897); conditions: Compound concentration 1000.0 nM
[15] = tested on: Epidermal growth factor receptor (Homo sapiens), P00533 [UNDEFINED MUTATION]; conditions: Compound concentration 1000.0 nM
Epidermal growth factor receptor (Homo sapiens), P00533 [UNDEFINED MUTATION], sequence (P00533 whole entry, looked up, stated change not applied): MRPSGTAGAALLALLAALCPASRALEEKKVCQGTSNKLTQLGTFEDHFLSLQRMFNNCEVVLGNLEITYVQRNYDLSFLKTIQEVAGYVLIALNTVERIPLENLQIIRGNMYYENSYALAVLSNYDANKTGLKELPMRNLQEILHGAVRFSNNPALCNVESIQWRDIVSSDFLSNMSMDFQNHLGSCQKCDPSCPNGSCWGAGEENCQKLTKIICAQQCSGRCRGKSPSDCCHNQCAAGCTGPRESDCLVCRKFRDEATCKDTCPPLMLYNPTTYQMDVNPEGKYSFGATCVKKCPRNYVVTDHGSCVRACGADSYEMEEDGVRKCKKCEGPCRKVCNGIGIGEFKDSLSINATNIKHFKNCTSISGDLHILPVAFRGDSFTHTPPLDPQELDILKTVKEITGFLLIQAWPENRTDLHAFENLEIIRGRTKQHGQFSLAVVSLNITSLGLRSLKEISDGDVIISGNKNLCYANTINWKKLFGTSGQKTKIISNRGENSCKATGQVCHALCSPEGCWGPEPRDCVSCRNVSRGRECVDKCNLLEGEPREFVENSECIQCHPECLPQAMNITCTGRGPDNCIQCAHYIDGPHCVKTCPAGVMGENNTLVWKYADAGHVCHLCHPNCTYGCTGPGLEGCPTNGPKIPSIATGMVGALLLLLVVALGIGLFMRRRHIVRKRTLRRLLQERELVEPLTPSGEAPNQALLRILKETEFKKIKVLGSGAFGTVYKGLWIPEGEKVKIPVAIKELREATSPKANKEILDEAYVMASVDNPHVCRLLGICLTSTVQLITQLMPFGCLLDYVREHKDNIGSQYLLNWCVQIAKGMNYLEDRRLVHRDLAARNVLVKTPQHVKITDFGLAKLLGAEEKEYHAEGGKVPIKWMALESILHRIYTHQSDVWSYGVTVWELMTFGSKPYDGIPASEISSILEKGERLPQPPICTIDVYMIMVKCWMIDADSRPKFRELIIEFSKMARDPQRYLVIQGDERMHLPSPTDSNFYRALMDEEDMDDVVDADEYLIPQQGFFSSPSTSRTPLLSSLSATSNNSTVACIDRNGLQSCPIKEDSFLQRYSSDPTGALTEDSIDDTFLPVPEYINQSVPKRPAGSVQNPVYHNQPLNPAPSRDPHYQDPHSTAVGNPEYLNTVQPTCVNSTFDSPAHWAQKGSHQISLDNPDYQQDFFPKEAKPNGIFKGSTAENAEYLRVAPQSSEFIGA

[16] = tested on: Tyrosine-protein kinase ABL1 (Homo sapiens), P00519 [H396P]; conditions: Compound concentration 1000.0 nM
[17] = target: Histamine H1 receptor (Homo sapiens) (UniProt P35367); conditions: Compound concentration 10.0 uM
Histamine H1 receptor (Homo sapiens), sequence (P35367 whole entry): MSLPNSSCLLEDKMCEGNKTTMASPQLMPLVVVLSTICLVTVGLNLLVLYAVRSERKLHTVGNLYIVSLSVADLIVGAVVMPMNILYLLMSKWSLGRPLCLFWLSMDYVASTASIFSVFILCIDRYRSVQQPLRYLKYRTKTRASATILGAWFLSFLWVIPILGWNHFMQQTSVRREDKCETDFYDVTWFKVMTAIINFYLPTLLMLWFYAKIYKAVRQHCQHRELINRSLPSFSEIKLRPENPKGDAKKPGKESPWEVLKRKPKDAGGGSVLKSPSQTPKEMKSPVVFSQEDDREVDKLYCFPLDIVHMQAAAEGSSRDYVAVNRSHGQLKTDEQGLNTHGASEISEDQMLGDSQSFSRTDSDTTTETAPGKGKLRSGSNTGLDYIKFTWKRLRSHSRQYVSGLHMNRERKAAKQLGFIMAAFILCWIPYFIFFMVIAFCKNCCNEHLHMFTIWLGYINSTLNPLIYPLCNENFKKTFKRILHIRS

[18] = target: Serine/threonine-protein kinase 38-like (Homo sapiens) (UniProt Q9Y2H1); conditions: Compound concentration 1000.0 nM
Serine/threonine-protein kinase 38-like (Homo sapiens), sequence (Q9Y2H1 2-464 limits assumed): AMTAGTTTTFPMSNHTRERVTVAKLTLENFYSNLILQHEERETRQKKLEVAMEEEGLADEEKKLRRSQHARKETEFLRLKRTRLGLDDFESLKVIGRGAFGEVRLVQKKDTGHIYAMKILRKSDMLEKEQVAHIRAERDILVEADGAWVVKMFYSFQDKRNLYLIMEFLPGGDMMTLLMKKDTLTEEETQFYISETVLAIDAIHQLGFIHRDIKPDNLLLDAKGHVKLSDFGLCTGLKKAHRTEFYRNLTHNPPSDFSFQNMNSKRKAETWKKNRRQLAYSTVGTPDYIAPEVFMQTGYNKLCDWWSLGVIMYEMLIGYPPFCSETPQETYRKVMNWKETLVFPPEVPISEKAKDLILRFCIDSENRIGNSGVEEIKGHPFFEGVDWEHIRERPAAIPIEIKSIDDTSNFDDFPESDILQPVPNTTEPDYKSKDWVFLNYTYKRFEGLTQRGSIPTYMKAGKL

[19] = target: Rhodopsin kinase GRK1 (Homo sapiens) (UniProt Q15835); conditions: Compound concentration 1000.0 nM
[20] = tested on: Tyrosine-protein kinase ABL1 (Homo sapiens), P00519 [T315I]; conditions: Compound concentration 1000.0 nM
[21] = target: Megakaryocyte-associated tyrosine-protein kinase (Homo sapiens) (UniProt P42679); conditions: Compound concentration 1000.0 nM
[22] = target: Tyrosine-protein kinase Blk (Homo sapiens) (UniProt P51451); conditions: Compound concentration 1000.0 nM
[23] = target: Serine/threonine-protein kinase LATS2 (Homo sapiens) (UniProt Q9NRM7); conditions: Compound concentration 1000.0 nM
Serine/threonine-protein kinase LATS2 (Homo sapiens), sequence (Q9NRM7 whole entry): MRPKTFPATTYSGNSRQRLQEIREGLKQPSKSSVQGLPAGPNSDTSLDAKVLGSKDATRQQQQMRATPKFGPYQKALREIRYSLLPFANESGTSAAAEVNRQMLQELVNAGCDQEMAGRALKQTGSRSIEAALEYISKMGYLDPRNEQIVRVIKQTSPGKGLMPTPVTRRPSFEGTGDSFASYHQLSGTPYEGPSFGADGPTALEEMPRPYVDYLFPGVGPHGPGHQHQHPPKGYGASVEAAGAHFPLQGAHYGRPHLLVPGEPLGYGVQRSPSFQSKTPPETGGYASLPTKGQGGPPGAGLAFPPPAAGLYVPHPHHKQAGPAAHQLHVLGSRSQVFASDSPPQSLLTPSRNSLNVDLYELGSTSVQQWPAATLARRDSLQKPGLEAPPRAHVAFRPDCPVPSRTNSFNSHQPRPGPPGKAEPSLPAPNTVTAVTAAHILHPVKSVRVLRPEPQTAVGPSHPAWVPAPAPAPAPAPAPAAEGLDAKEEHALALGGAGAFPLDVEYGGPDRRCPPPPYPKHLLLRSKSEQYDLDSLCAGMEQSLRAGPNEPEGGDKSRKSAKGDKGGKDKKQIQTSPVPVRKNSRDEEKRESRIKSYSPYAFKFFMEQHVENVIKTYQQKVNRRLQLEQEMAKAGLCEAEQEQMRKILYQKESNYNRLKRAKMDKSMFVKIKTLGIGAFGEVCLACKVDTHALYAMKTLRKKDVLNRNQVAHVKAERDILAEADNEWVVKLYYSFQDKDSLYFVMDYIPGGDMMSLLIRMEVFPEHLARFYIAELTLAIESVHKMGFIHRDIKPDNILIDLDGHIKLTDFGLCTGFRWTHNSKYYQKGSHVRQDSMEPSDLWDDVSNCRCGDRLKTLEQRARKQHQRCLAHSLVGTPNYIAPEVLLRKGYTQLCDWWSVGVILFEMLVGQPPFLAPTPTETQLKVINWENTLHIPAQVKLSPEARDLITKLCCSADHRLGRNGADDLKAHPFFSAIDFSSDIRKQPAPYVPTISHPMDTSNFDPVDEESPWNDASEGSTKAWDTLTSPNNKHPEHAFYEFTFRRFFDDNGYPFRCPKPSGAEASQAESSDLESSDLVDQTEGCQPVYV

[24] = target: Cyclin-dependent kinase 4 (Homo sapiens) (UniProt P11802); conditions: Compound concentration 1000.0 nM
[25] = target: Serine/threonine-protein kinase D2 (Homo sapiens) (UniProt Q9BZL6); conditions: Compound concentration 1000.0 nM
[26] = target: Casein kinase I isoform gamma-2 (Homo sapiens) (UniProt P78368); conditions: Compound concentration 1000.0 nM
[27] = target: Serine/threonine-protein kinase Nek2 (Homo sapiens) (UniProt P51955); conditions: Compound concentration 1000.0 nM
Serine/threonine-protein kinase Nek2 (Homo sapiens), sequence (P51955 whole entry): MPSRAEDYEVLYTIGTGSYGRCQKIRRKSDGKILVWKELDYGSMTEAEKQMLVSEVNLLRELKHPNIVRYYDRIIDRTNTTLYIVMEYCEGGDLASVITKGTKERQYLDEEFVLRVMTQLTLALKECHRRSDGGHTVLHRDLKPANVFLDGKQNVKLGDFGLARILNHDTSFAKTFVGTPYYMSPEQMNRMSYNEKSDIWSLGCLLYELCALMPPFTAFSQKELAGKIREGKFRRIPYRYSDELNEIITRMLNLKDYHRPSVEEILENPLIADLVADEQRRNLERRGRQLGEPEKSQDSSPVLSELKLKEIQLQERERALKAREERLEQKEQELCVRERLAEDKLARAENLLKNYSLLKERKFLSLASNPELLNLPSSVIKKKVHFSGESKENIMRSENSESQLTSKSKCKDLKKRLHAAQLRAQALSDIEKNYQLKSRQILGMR

[28] = target: Membrane-associated tyrosine- and threonine-specific cdc2-inhibitory kinase (Homo sapiens) (UniProt Q99640); conditions: Compound concentration 1000.0 nM
[29] = target: Wee1-like protein kinase (Homo sapiens) (UniProt P30291); conditions: Compound concentration 1000.0 nM
Wee1-like protein kinase (Homo sapiens), sequence (P30291 whole entry, looked up): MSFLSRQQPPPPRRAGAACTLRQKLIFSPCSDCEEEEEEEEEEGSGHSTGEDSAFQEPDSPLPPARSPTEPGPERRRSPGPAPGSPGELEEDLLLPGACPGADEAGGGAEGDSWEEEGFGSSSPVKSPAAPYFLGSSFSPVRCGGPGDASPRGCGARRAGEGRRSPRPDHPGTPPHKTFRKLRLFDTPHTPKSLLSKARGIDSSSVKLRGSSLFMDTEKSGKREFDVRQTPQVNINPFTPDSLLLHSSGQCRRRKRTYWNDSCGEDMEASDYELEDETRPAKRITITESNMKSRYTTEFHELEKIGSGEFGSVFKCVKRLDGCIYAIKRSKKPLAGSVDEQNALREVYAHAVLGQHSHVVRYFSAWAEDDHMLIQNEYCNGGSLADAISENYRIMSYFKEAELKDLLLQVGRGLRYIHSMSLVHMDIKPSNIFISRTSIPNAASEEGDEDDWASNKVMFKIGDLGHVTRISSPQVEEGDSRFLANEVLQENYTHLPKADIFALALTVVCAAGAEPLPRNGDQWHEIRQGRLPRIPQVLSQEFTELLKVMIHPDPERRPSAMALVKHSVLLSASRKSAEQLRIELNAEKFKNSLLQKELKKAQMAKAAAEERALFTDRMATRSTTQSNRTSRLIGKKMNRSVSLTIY

[30] = target: Serine/threonine-protein kinase 17A (Homo sapiens) (UniProt Q9UEE5); conditions: Compound concentration 1000.0 nM
[31] = tested on: Receptor-type tyrosine-protein kinase FLT3 (Homo sapiens), P36888 [UNDEFINED MUTATION]; conditions: Compound concentration 1000.0 nM
[32] = target: BDNF/NT-3 growth factors receptor (Homo sapiens) (UniProt Q16620); conditions: Compound concentration 1000.0 nM
[33] = target: Protein kinase C epsilon type (Homo sapiens) (UniProt Q02156); conditions: Compound concentration 1000.0 nM
[34] = target: Serine/threonine-protein kinase Nek5 (Homo sapiens) (UniProt Q6P3R8); conditions: Compound concentration 1000.0 nM
[35] = target: Mitogen-activated protein kinase 11 (Homo sapiens) (UniProt Q15759); conditions: Compound concentration 1000.0 nM
Mitogen-activated protein kinase 11 (Homo sapiens), sequence (Q15759 whole entry): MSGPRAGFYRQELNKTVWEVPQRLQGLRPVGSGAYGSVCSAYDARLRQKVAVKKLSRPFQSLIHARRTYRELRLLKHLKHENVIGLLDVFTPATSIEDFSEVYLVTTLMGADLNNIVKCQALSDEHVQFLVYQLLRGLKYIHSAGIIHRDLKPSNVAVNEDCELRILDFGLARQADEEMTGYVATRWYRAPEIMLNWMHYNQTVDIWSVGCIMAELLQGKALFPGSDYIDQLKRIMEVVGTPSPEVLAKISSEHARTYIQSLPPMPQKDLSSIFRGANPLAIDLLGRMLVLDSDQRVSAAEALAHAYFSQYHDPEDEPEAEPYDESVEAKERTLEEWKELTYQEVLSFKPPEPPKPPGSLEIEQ

[36] = target: Mitogen-activated protein kinase 8 (Homo sapiens) (UniProt P45983); conditions: Compound concentration 1000.0 nM
[37] = target: Wee1-like protein kinase 2 (Homo sapiens) (UniProt P0C1S8); conditions: Compound concentration 1000.0 nM
[38] = target: Mitogen-activated protein kinase kinase kinase 12 (Homo sapiens) (UniProt Q12852); conditions: Compound concentration 1000.0 nM
[39] = target: Cyclin-dependent kinase-like 1 (Homo sapiens) (UniProt Q00532); conditions: Compound concentration 1000.0 nM

Casein kinase I isoform alpha-like (Homo sapiens), sequence (Q8N752 whole entry, canonical isoform): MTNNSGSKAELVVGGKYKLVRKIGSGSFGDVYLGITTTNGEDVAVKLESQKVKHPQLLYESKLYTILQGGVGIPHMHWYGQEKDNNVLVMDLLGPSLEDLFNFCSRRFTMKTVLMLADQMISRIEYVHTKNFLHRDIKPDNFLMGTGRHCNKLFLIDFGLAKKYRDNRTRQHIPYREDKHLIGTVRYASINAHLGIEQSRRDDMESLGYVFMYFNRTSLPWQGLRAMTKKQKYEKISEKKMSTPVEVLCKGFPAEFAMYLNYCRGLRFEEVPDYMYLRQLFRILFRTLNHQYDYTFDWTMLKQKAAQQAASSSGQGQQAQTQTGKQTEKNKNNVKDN

C[C@H](c1ccc(F)cc1)N(Cc1cccc(C(=O)O)c1)C(=O)c1cnc2ccccc2c1 [PF-05105679]
inactive: residual activity [1] 100% | residual activity [2] 100% | residual activity [3] 87% | inhibition [4] 21% | residual activity [5] 96% | residual activity [6] 100% | residual activity [7] 98% | inhibition [8] 6.54% | residual activity [9] 97% | residual activity [10] 100% | residual activity [11] 100% | residual activity [12] 100% | residual activity [13] 100% | residual activity [14] 96% | residual activity [15] 100% | residual activity [16] 100% | inhibition [17] 22.9% | residual activity [18] 100% | residual activity [19] 100% | residual activity [20] 75% | residual activity [21] 79% | residual activity [22] 88% | residual activity [23] 64% | residual activity [24] 97% | residual activity [25] 100% | residual activity [26] 100% | residual activity [27] 94% | residual activity [28] 68% | residual activity [29] 96% | residual activity [30] 86% | residual activity [31] 100% | residual activity [32] 100% | residual activity [33] 95% | residual activity [34] 100% | residual activity [35] 100% | residual activity [36] 100% | residual activity [37] 100% | residual activity [38] 100% | residual activity [39] 100%
